Assay results published in US6355799B1, “Substituted benzene compounds, process for their preparation, and herbicidal and defoliant compositions containing them” (ISK Americas Incorporated, priority 1997, dated 2002).

What was measured:
Type in all cases: in vivo
[1] = test system: redroot pigweed (Amaranthus retroflexus, AMARE); experiment: Pre-emerge test, greenhouse herbicide activity screening
Method in brief: (§1)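 Rating: 0–100 visual injury, 14 DAA. Application: acetone, 187 l/ha, 15–1000 g ai/ha, flat-fan track sprayer with nozzle 40–45 cm above soil or canopy. Post-emerge runs used 0.25% v/v surfactant on 2–3 leaf plants.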

[2] = test system: ivyleaf morningglory (Ipomoea hederacea, IPOHE); experiment: Post-emerge test, greenhouse herbicide activity screening; details: post-emerge; for phytotoxicity rating IPOHE: 14 days after application, rating scale 0-100; for Post-emerge Herbicidal Activity IPOHE: phytotoxicity rating 0-100 at 14 days after application
Method in brief: (§2)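 Compounds in acetone were track-sprayed at 15–1000 g ai/ha: pre-emergence onto soil sown the previous day, then top-watered to incorporate and later bottom-watered; post-emergence onto 2–3 leaf plants with 0.25% v/v surfactant, bottom-watered only. Ratings on a 0–100 phytotoxicity scale were taken at day 14.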

[3] = test system: large crabgrass (Digitaria sanguinalis, DIGSA); experiment: as above; details: post-emerge; for phytotoxicity rating DIGSA: 14 days after application, rating scale 0-100; for Post-emerge Herbicidal Activity DIGSA: phytotoxicity rating 0-100 at 14 days after application
Method in brief: as §2

[4] = test system: lambsquarters (Chenopodium album, CHEAL); experiment: as above; details: post-emerge; for phytotoxicity rating CHEAL: 14 days after application, rating scale 0-100; for Post-emerge Herbicidal Activity CHEAL: phytotoxicity rating 0-100 at 14 days after application
Method in brief: as §2

[5] = test system: redroot pigweed (Amaranthus retroflexus, AMARE); experiment: as above; details: post-emerge; for phytotoxicity rating AMARE: 14 days after application; for Post-emerge Herbicidal Activity AMARE: phytotoxicity rating 0-100 at 14 days after application
Method in brief: as §2

[6] = test system: velvetleaf (Abutilon theophrasti, ABUTH); experiment: as above; details: post-emerge; for phytotoxicity rating ABUTH: 14 days after application, rating scale 0-100; for Post-emerge Herbicidal Activity ABUTH: phytotoxicity rating 0-100 at 14 days after application
Method in brief: as §2

[7] = test system: green foxtail (Setaria viridis, SETVI); experiment: as above; details: post-emerge; for phytotoxicity rating SETVI: 14 days after application, rating scale 0-100; for Post-emerge Herbicidal Activity SETVI: phytotoxicity rating 0-100 at 14 days after application
Method in brief: as §2

[8] = test system: barnyardgrass (Echinochloa crus-galli, ECHCG); experiment: as above; details: post-emerge; for phytotoxicity rating ECHCG: 14 days after application, rating scale 0-100; for Post-emerge Herbicidal Activity ECHCG: phytotoxicity rating 0-100 at 14 days after application
Method in brief: as §2

[9] = test system: sicklepod (Cassia obtusifolia, CASOB); experiment: as above; details: post-emerge; for phytotoxicity rating CASOB: 14 days after application, rating scale 0-100; for Post-emerge Herbicidal Activity CASOB: phytotoxicity rating 0-100 at 14 days after application
Method in brief: as §2

[10] = test system: johnsongrass (Sorghum halepense, SORHA); experiment: as above; details: post-emerge; for phytotoxicity rating SORHA: 14 days after application, rating scale 0-100; for Post-emerge Herbicidal Activity SORHA: phytotoxicity rating 0-100 at 14 days after application
Method in brief: as §2

[11] = test system: upland rice (Oryza sp., var. Tebonnet, RICE); experiment: Post-emerge test, crop safety; details: post-emerge; for phytotoxicity rating RICE (crop damage): 14 days after application, rating scale 0-100; for Post-emerge Herbicidal Activity RICE: crop damage rating 0-100 at 14 days after application
Method in brief: (§3)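 Visual ratings on a 0-100 scale (0 no damage, 100 all plants dead) were taken at 14 days after treatment. Rates of 15-1000 g ai/ha in acetone, 187 l/ha, were sprayed onto soil one day after planting (pre-emerge) or onto 2-3 leaf plants with 0.25% v/v surfactant (post-emerge).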

[12] = test system: field corn (Zea mays L., var. Dekalb 535, CORN); experiment: Post-emerge test, crop safety; details: post-emerge; for phytotoxicity rating CORN (crop damage): 14 days after application, rating scale 0-100; for Post-emerge Herbicidal Activity CORN: crop damage rating 0-100 at 14 days after application
Method in brief: as §3

[13] = test system: upland rice (Oryza sp., var. Tebonnet, RICE); experiment: Pre-emerge test, crop safety
Method in brief: as §1

[14] = test system: field corn (Zea mays L., var. Dekalb 535, CORN); experiment: Pre-emerge test, crop safety
Method in brief: as §1

[15] = test system: ivyleaf morningglory (Ipomoea hederacea, IPOHE); experiment: Pre-emerge test, greenhouse herbicide activity screening
Method in brief: as §3

[16] = test system: large crabgrass (Digitaria sanguinalis, DIGSA); experiment: as above
Method in brief: as §3

[17] = test system: lambsquarters (Chenopodium album, CHEAL); experiment: as above
Method in brief: as §3

[18] = test system: velvetleaf (Abutilon theophrasti, ABUTH); experiment: as above
Method in brief: as §3

[19] = test system: green foxtail (Setaria viridis, SETVI); experiment: as above
Method in brief: as §3

[20] = test system: barnyardgrass (Echinochloa crus-galli, ECHCG); experiment: as above
Method in brief: as §3

[21] = test system: sicklepod (Cassia obtusifolia, CASOB); experiment: as above
Method in brief: as §3

[22] = test system: johnsongrass (Sorghum halepense, SORHA); experiment: as above
Method in brief: as §3

[23] = 63 g ai/ha, phytotoxicity rating 0-100, 14 days after application
[24] = 250 g ai/ha, phytotoxicity rating 0-100, 14 days after application
[25] = 63 g ai/ha, crop damage rating 0-100, 14 days after application
[26] = 250 g ai/ha, crop damage rating 0-100, 14 days after application
[27] = pre-emerge, rate 63 g ai/ha, phytotoxicity rating 0-100 at 14 days after application
[28] = pre-emerge, rate 250 g ai/ha, phytotoxicity rating 0-100 at 14 days after application
[29] = crop damage, pre-emerge, rate 63 g ai/ha, phytotoxicity rating 0-100 at 14 days after application
[30] = crop damage, pre-emerge, rate 250 g ai/ha, phytotoxicity rating 0-100 at 14 days after application

COc1c(Cl)cc(F)c(-n2c(=O)cc(C(F)(F)F)n(C)c2=O)c1NC(=O)NCc1ccccc1 [Compound 3-6]
Pre-emerge Herbicidal Activity AMARE [1, 23]: 90 | Pre-emerge Herbicidal Activity AMARE [1, 24]: 100 | phytotoxicity rating IPOHE ([2]; 63 g ai/ha): 90 | phytotoxicity rating IPOHE ([2]; 250 g ai/ha): 100 | phytotoxicity rating DIGSA ([3]; 63 g ai/ha): 0 | phytotoxicity rating DIGSA ([3]; 250 g ai/ha): 10 | phytotoxicity rating CHEAL ([4]; 63 g ai/ha): 50 | phytotoxicity rating CHEAL ([4]; 250 g ai/ha): 90 | phytotoxicity rating AMARE ([5]; 63 g ai/ha, rating scale 0-100 (0 no damage, 100 complete death)): 100 | phytotoxicity rating AMARE ([5]; 250 g ai/ha, rating scale 0-100): 100 | phytotoxicity rating ABUTH ([6]; 63 g ai/ha): 100 | phytotoxicity rating ABUTH ([6]; 250 g ai/ha): 100 | phytotoxicity rating SETVI ([7]; 63 g ai/ha): 0 | phytotoxicity rating SETVI ([7]; 250 g ai/ha): 40 | phytotoxicity rating ECHCG ([8]; 63 g ai/ha): 0 | phytotoxicity rating ECHCG ([8]; 250 g ai/ha): 20 | phytotoxicity rating CASOB ([9]; 63 g ai/ha): 40 | phytotoxicity rating CASOB ([9]; 250 g ai/ha): 90 | phytotoxicity rating SORHA ([10]; 63 g ai/ha): 0 | phytotoxicity rating SORHA ([10]; 250 g ai/ha): 20 | phytotoxicity rating RICE (crop damage) ([11]; 63 g ai/ha): 30 | phytotoxicity rating RICE (crop damage) ([11]; 250 g ai/ha): 70 | phytotoxicity rating CORN (crop damage) ([12]; 63 g ai/ha): 20 | phytotoxicity rating CORN (crop damage) ([12]; 250 g ai/ha): 70 | Pre-emerge Herbicidal Activity RICE [13, 25]: 30 | Pre-emerge Herbicidal Activity RICE [13, 26]: 80 | Pre-emerge Herbicidal Activity CORN [14, 25]: 0 | Pre-emerge Herbicidal Activity CORN [14, 26]: 90 | Pre-emerge Herbicidal Activity IPOHE [15, 23]: 100 | Pre-emerge Herbicidal Activity IPOHE [15, 24]: 95 | Pre-emerge Herbicidal Activity DIGSA [16, 23]: 30 | Pre-emerge Herbicidal Activity DIGSA [16, 24]: 100 | Pre-emerge Herbicidal Activity CHEAL [17, 23]: 100 | Pre-emerge Herbicidal Activity CHEAL [17, 24]: 100 | Pre-emerge Herbicidal Activity ABUTH [18, 23]: 100 | Pre-emerge Herbicidal Activity ABUTH [18, 24]: 100 | Pre-emerge Herbicidal Activity SETVI [19, 23]: 100 | Pre-emerge Herbicidal Activity SETVI [19, 24]: 100 | Pre-emerge Herbicidal Activity ECHCG [20, 23]: 40 | Pre-emerge Herbicidal Activity ECHCG [20, 24]: 80 | Pre-emerge Herbicidal Activity CASOB [21, 23]: 100 | Pre-emerge Herbicidal Activity CASOB [21, 24]: 100 | Pre-emerge Herbicidal Activity SORHA [22, 23]: 30 | Pre-emerge Herbicidal Activity SORHA [22, 24]: 80

Cc1c(Cl)cc(F)c(-n2c(=O)cc(C(F)(F)F)n(C)c2=O)c1NC(=O)OCc1ccc([N+](=O)[O-])cc1 [4-64]
Pre-emerge Herbicidal Activity AMARE [1, 27]: 100 | Pre-emerge Herbicidal Activity AMARE [1, 28]: 100 | Post-emerge Herbicidal Activity IPOHE ([2]; 63 g ai/ha): 100 | Post-emerge Herbicidal Activity IPOHE ([2]; 250 g ai/ha): 100 | Post-emerge Herbicidal Activity DIGSA ([3]; 63 g ai/ha): 10 | Post-emerge Herbicidal Activity DIGSA ([3]; 250 g ai/ha): 30 | Post-emerge Herbicidal Activity CHEAL ([4]; 63 g ai/ha): 100 | Post-emerge Herbicidal Activity CHEAL ([4]; 250 g ai/ha): 100 | Post-emerge Herbicidal Activity AMARE ([5]; 63 g ai/ha): 100 | Post-emerge Herbicidal Activity AMARE ([5]; 250 g ai/ha): 100 | Post-emerge Herbicidal Activity ABUTH ([6]; 63 g ai/ha): 100 | Post-emerge Herbicidal Activity ABUTH ([6]; 250 g ai/ha): 100 | Post-emerge Herbicidal Activity SETVI ([7]; 63 g ai/ha): 50 | Post-emerge Herbicidal Activity SETVI ([7]; 250 g ai/ha): 80 | Post-emerge Herbicidal Activity ECHCG ([8]; 63 g ai/ha): 20 | Post-emerge Herbicidal Activity ECHCG ([8]; 250 g ai/ha): 30 | Post-emerge Herbicidal Activity CASOB ([9]; 63 g ai/ha): 60 | Post-emerge Herbicidal Activity CASOB ([9]; 250 g ai/ha): 100 | Post-emerge Herbicidal Activity SORHA ([10]; 63 g ai/ha): 10 | Post-emerge Herbicidal Activity SORHA ([10]; 250 g ai/ha): 30 | Post-emerge Herbicidal Activity RICE ([11]; 63 g ai/ha): 15 | Post-emerge Herbicidal Activity RICE ([11]; 250 g ai/ha): 50 | Post-emerge Herbicidal Activity CORN ([12]; 63 g ai/ha): 30 | Post-emerge Herbicidal Activity CORN ([12]; 250 g ai/ha): 40 | Pre-emerge Herbicidal Activity RICE [13, 29]: 30 | Pre-emerge Herbicidal Activity RICE [13, 30]: 80 | Pre-emerge Herbicidal Activity CORN [14, 29]: 0 | Pre-emerge Herbicidal Activity CORN [14, 30]: 45 | Pre-emerge Herbicidal Activity IPOHE [15, 27]: 40 | Pre-emerge Herbicidal Activity IPOHE [15, 28]: 70 | Pre-emerge Herbicidal Activity DIGSA [16, 27]: 100 | Pre-emerge Herbicidal Activity DIGSA [16, 28]: 100 | Pre-emerge Herbicidal Activity CHEAL [17, 27]: 100 | Pre-emerge Herbicidal Activity CHEAL [17, 28]: 100 | Pre-emerge Herbicidal Activity ABUTH [18, 27]: 100 | Pre-emerge Herbicidal Activity ABUTH [18, 28]: 100 | Pre-emerge Herbicidal Activity SETVI [19, 27]: 100 | Pre-emerge Herbicidal Activity SETVI [19, 28]: 100 | Pre-emerge Herbicidal Activity ECHCG [20, 27]: 30 | Pre-emerge Herbicidal Activity ECHCG [20, 28]: 70 | Pre-emerge Herbicidal Activity CASOB [21, 27]: 20 | Pre-emerge Herbicidal Activity CASOB [21, 28]: 90 | Pre-emerge Herbicidal Activity SORHA [22, 27]: 40 | Pre-emerge Herbicidal Activity SORHA [22, 28]: 80
